From ChEMBL document CHEMBL2073828, “The breast cancer resistance protein (Bcrp1/Abcg2) restricts exposure to the dietary carcinogen 2-amino-1-methyl-6-phenylimidazo[4,5-b]pyridine” (Cancer Res, 2003)

Columns and labels:
[1] = biological target: T1, Broad substrate specificity ATP-binding cassette transporter ABCG2 (Mus musculus, UniProt Q7TMS5); assay: TP_TRANSPORTER: transcellular transport in MDCKII; type: functional, cell-based; conditions: dog, mdck-ii
T1 sequence (Q7TMS5 whole entry): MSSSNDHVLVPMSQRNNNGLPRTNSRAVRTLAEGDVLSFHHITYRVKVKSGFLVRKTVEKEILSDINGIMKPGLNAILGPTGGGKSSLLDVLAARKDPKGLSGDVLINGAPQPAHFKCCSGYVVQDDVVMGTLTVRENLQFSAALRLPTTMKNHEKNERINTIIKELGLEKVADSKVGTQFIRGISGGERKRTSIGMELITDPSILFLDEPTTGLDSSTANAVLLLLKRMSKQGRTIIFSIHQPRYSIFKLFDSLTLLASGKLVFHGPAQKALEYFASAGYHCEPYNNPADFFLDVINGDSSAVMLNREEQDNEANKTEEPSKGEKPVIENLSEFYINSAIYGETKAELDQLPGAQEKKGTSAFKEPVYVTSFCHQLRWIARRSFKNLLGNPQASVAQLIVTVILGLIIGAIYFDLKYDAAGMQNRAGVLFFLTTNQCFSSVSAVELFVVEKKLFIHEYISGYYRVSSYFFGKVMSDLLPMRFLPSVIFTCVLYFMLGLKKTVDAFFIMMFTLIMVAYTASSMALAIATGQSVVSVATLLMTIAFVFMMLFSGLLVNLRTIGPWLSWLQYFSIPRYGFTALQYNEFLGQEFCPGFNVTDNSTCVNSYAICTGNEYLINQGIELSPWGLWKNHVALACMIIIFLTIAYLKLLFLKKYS

[2] = biological target: T1, Broad substrate specificity ATP-binding cassette transporter ABCG2; assay: TP_TRANSPORTER: biliary excretion; type: functional, organism-based, Bile; conditions: in vivo
[3] = biological target: T1, Broad substrate specificity ATP-binding cassette transporter ABCG2; assay: TP_TRANSPORTER: intestinal excretion; type: functional, organism-based; conditions: in vivo

Measured: Activity

Cn1c(N)nc2ncc(-c3ccccc3)cc21 [2-AMINO-1-METHYL-6- PHENYLIMIDAZO[4,5- B]PYRIDINE]
substrate []: all assays above
